Assay results as given in patent US8691804B2 (Evotec AG, priority 2008, dated 2014).

Target: T1, human H3 receptors (Homo sapiens, UniProt Q9Y5N1)
T1 construct: host or cells: CHO-K1
Assay: cAMP quantification assay for human H3 receptor testing
Format: cell-based
Details: CHO-K1 cells expressing human H3 receptors; inhibition of agonist-induced decrease of cAMP; 100 nM histamine, 10 μM forskolin; read-out: Potency range (IC50 values)
Description: CHO—K1 cell line expressing human H3 receptors were purchased from Euroscreen (Gosselies, Belgium, Cat. no.: ES-392-C)
Human H3 receptor-expressing cell-lines were grown in Ham's F12 [Sigma, Cat. no. N6658], supplemented with 10% FBS [Sigma, Cat. no. F9665], 400 μg/ml G418 [Sigma, Cat. no. N1876] and 250 μg/ml Zeocin [Invitrogen, Cat. no. 46-0509]) according to the protocol provided by Euroscreen.
The assay measures the ability of test compounds to inhibit Histamine receptor agonist-induced decrease of intracellular free cAMP (receptor is Gi coupled).
Specifically, a cAMP quantification assay system from DiscoveRx (cAMP XS+; Cat. no. 90-0075) was used.
For the cAMP assay, confluent cells were detached from the culture vessels with 1× trypsin-EDTA solution (Sigma), and seeded into 384-well Costar plates (white, clear bottom, Cat. no. 3707) at a density of 10,000 cells per well. Cells were seeded in a volume of 50 μl in medium without antibiotics and incubated overnight in a humidified atmosphere with 5% CO2 at 37° C. The cAMP assay was performed according to the protocol provided by DiscoveRx.
The cell culture medium was removed and the cells washed once with PBS (50 μl per well). The plates were emptied by inversion and 7.5 μl/well of compound in PBS (containing 1 mM IBMX and 0.03% BSA) were added and incubated for 30 min at 37° C.
Subsequent 7.5 μl/well specific agonist solution was added and the plates for another 30 min incubated at 37° C.
hH3:100 nM histamine, 10 μM forskolin in PBS (containing 1 mM IBMX and 0.03% BSA)
After the incubation with the agonist, 5 μl/well cAMP XS antibody solution was added followed by 20 μl/well Gal/EII/Lysis (1:5:19)+ED (1:1). The plates were incubated for one hour at room temperature and afterwards 20 μl/well EA reagent was added. The luminescence was developed for approximately three hours at room temperature and the plates were read out using a ‘BMG Novostar’ plate reader.
Test compounds were assayed at 8 concentrations in triplicate. Serial 10-fold dilutions in 100% DMSO were made at a 100-times higher concentration than the final concentration and then diluted with a 2 step protocol in assay buffer to reach the required assay concentrations and 1% DMSO. […]

T1 sequence (Q9Y5N1 whole entry): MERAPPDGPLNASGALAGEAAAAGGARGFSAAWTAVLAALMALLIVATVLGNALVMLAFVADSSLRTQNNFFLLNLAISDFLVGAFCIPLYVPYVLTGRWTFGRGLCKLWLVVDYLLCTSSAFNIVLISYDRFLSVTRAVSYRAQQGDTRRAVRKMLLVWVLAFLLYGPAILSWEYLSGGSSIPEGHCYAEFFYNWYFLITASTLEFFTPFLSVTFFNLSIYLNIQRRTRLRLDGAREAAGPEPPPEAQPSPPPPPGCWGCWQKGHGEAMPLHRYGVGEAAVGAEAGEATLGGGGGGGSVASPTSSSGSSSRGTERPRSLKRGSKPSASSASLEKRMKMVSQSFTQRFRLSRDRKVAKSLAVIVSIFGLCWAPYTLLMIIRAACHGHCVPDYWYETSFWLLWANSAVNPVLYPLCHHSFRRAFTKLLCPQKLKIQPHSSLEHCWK

| Structure (SMILES) | IC50 |
| --- | --- |
| O=C(N1CCCN(C2CCC2)CC1)N1CC(Oc2cncc(Cl)c2)C1 [Example 80, 1-({3-[(5-chloropyridin-3-yl)oxy]azetidin-1-yl}carbonyl)-4-cyclobutyl-1,4-diazepane] | < 100 nM |
| COc1cncc(OC2CN(C(=O)N3CCCN(C4CCC4)CC3)C2)c1 [Example 82, 1-cyclobutyl-4-({3-[(5-methoxypyridin-3-yl)oxy]azetidin-1-yl}carbonyl)-1,4-diazepane] | < 100 nM |
| O=C(N1CCCN(C2CCC2)CC1)N1CC(Oc2ccc(-n3cccn3)cc2)C1 [Example 87, 1-cyclobutyl-4-({3-[4-(1H-pyrazol-1-yl)phenoxy]azetidin-1-yl}carbonyl)-1,4-diazepane] | < 100 nM |
| O=C(N1CCCN(C2CCC2)CC1)N1CC(Oc2ccc(OC(F)F)cc2)C1 [Example 89, 1-cyclobutyl-4-({3-[4-(difluoromethoxy)phenoxy]azetidin-1-yl}carbonyl)-1,4-diazepane] | < 100 nM |
| O=C(N1CCCN(C2CCC2)CC1)N1CC(Oc2ccc(Cl)cc2F)C1 [Example 90, 1-{[3-(4-chloro-2-fluorophenoxy)azetidin-1-yl]carbonyl}-4-cyclobutyl-1,4-diazepane] | < 100 nM |
| O=C(N1CCCN(C2CCC2)CC1)N1CC(Oc2ccc(C(F)(F)F)nc2)C1 [Example 94, 1-cyclobutyl-4-[(3-{[6-(trifluoromethyl)pyridin-3-yl]oxy}azetidin-1-yl)carbonyl]-1,4-diazepane] | < 100 nM |
| O=C(N1CCCN(C2CCC2)CC1)N1CC(OCc2ccc(F)cc2)C1 [Example 95, 1-cyclobutyl-4-({3-[(4-fluorobenzyl)oxy]azetidin-1-yl}carbonyl)-1,4-diazepane] | < 100 nM |

The next lines start with the values.

| IC50 | Structure (SMILES) |
| --- | --- |
| < 100 nM | O=C(N1CCCN(C2CCC2)CC1)N1CC(Oc2ccncc2)C1 [Example 81, 1-cyclobutyl-4-{[3-(pyridin-4-yloxy)azetidin-1-yl]carbonyl}-1,4-diazepane] |
| < 100 nM | O=C(C1CC1)N1CCc2nc(OC3CN(C(=O)N4CCCN(C5CCC5)CC4)C3)ccc2C1 [Example 83, 2-({1-[(4-cyclobutyl-1,4-diazepan-1-yl)carbonyl]azetidin-3-yl}oxy)-6-(cyclopropylcarbonyl)-5,6,7,8-tetrahydro-1,6-naphthyridine] |
| < 100 nM | O=C(CC1CC1)N1CCc2nc(OC3CN(C(=O)N4CCCN(C5CCC5)CC4)C3)ccc2C1 [Example 84, 2-({1-[(4-cyclobutyl-1,4-diazepan-1-yl)carbonyl]azetidin-3-yl}oxy)-6-(cyclopropylacetyl)-5,6,7,8-tetrahydro-1,6-naphthyridine] |
| < 100 nM | CNC(=O)c1cnccc1OC1CN(C(=O)N2CCCN(C3CCC3)CC2)C1 [Example 85, 4-({1-[(4-cyclobutyl-1,4-diazepan-1-yl)carbonyl]azetidin-3-yl}oxy)-N-methylpyridine-3-carboxamide] |
| < 100 nM | COc1ccc(OC2CN(C(=O)N3CCCN(C4CCC4)CC3)C2)cc1 [Example 86, 1-cyclobutyl-4-{[3-(4-methoxyphenoxy)azetidin-1-yl]carbonyl}-1,4-diazepane] |
| < 100 nM | O=C(N1CCCN(C2CCC2)CC1)N1CC(Oc2ccc(OC(F)(F)F)cc2)C1 [Example 88, 1-cyclobutyl-4-({3-[4-(trifluoromethoxy)phenoxy]azetidin-1-yl}carbonyl)-1,4-diazepane] |
| < 100 nM | COc1cccc(OC2CN(C(=O)N3CCCN(C4CCC4)CC3)C2)c1 [Example 91, 1-cyclobutyl-4-{[3-(3-methoxyphenoxy)azetidin-1-yl]carbonyl}-1,4-diazepane] |
| < 100 nM | COc1ccccc1OC1CN(C(=O)N2CCCN(C3CCC3)CC2)C1 [Example 92, 1-cyclobutyl-4-{[3-(2-methoxyphenoxy)azetidin-1-yl]carbonyl}-1,4-diazepane] |
| < 100 nM | Cc1ccc2cc(OC3CN(C(=O)N4CCCN(C5CCC5)CC4)C3)ccc2n1 [Example 93, 6-({1-[(4-cyclobutyl-1,4-diazepan-1-yl)carbonyl]azetidin-3-yl}oxy)-2-methylquinoline] |
